From ChEMBL document CHEMBL4350982, “Multi-target design strategies for the improved treatment of Alzheimer's disease” (Eur J Med Chem, 2019)

Legend:
[1] = target: Cholinesterase (Equus caballus, UniProt P81908); test: Inhibition of equine serum BChE using butyrylthiocholine iodide as substrate preincubated for 10 mins followed by substrate addition by Ellman's method
[2] = target: Glutamate [NMDA] receptor; test: Displacement of [3H]-MK-801 from NMDA receptor (unknown origin) by scintillation counting method; type: protein-complex assay, Homo sapiens
[3] = target: Glutamate [NMDA] receptor; test: Displacement of [3H]-ifenprodil from NMDA receptor (unknown origin) by scintillation counting method; type: protein-complex assay, Homo sapiens
[4] = target: T1, Acetylcholinesterase (Rattus norvegicus, UniProt P37136); test: Inhibition of AChE from rat cortex by Ellman's method
T1 sequence (P37136 whole entry): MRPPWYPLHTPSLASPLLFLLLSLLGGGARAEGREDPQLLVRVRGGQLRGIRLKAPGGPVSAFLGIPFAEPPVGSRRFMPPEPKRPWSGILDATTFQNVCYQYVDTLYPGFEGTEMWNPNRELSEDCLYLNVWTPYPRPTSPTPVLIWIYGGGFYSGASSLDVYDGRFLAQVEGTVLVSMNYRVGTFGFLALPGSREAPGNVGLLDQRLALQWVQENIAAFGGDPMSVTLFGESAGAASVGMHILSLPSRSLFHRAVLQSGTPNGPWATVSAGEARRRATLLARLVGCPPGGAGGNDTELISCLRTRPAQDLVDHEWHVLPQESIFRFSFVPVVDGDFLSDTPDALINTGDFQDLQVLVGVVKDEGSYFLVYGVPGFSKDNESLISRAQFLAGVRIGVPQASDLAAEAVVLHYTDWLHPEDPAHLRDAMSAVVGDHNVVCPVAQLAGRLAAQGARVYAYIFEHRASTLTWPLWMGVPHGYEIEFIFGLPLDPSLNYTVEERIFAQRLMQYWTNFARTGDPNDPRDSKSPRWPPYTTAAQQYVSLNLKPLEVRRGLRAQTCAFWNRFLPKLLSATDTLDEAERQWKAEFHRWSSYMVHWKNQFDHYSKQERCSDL

[5] = target: Butyrylcholinesterase (Rattus norvegicus, UniProt Q9JKC1); test: Inhibition of BuChE from rat serum by Ellman's method
Sequence of Butyrylcholinesterase (Q9JKC1 whole entry): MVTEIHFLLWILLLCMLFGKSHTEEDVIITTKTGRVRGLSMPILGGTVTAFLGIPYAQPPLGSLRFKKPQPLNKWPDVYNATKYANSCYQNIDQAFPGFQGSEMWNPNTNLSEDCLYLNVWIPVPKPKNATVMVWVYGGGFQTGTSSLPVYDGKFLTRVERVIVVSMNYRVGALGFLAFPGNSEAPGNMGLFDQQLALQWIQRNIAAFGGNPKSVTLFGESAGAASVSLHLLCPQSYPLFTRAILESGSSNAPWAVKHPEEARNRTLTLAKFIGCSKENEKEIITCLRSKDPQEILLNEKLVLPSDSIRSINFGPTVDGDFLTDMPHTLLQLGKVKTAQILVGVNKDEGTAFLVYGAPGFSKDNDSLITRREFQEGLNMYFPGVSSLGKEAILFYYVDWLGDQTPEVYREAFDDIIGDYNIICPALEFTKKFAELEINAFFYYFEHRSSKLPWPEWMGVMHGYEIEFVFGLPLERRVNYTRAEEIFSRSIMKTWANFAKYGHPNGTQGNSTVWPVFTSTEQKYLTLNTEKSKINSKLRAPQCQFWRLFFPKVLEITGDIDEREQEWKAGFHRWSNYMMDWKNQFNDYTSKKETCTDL

[6] = target: cGMP-specific 3',5'-cyclic phosphodiesterase (Homo sapiens, UniProt O76074); test: Inhibition of PDE5A1 (unknown origin) by immobilized metal ion affinity-based fluorescence polarization
[7] = target: cGMP-dependent 3',5'-cyclic phosphodiesterase (Homo sapiens, UniProt O00408); test: Inhibition of PDE2A1 (unknown origin) by immobilized metal ion affinity-based fluorescence polarization
Sequence of cGMP-dependent 3',5'-cyclic phosphodiesterase (O00408 whole entry): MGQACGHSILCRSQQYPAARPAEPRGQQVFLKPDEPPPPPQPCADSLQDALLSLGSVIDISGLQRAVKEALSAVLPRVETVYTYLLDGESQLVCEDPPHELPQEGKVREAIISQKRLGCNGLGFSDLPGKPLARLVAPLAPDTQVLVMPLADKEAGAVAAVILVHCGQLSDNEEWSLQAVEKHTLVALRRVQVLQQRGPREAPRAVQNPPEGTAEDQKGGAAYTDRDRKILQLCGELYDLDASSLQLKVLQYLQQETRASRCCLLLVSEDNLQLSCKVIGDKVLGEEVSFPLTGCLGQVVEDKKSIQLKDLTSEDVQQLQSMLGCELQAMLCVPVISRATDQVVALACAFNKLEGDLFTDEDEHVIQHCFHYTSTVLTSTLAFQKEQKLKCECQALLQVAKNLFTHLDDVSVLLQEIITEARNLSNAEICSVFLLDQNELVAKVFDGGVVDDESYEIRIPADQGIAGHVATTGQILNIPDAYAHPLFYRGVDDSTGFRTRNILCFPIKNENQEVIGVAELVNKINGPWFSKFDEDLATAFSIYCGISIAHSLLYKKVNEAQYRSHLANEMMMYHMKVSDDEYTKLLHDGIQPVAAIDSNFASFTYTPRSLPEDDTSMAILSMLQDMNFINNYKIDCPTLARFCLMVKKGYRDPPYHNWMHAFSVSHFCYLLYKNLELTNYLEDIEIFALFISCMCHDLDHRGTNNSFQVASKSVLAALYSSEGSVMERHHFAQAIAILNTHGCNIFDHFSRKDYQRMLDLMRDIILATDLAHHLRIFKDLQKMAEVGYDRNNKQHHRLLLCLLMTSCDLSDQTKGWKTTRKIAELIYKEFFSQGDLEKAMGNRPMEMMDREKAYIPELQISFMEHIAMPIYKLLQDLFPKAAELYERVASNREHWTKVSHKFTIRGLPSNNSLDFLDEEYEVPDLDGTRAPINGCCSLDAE

[8] = target: cGMP-inhibited 3',5'-cyclic phosphodiesterase 3A (Homo sapiens, UniProt Q14432); test: Inhibition of PDE3A (unknown origin) by immobilized metal ion affinity-based fluorescence polarization
[9] = target: Cone cGMP-specific 3',5'-cyclic phosphodiesterase subunit alpha' (Homo sapiens, UniProt P51160); test: Inhibition of PDE6C (unknown origin) by immobilized metal ion affinity-based fluorescence polarization
Sequence of Cone cGMP-specific 3',5'-cyclic phosphodiesterase subunit alpha' (P51160 whole entry): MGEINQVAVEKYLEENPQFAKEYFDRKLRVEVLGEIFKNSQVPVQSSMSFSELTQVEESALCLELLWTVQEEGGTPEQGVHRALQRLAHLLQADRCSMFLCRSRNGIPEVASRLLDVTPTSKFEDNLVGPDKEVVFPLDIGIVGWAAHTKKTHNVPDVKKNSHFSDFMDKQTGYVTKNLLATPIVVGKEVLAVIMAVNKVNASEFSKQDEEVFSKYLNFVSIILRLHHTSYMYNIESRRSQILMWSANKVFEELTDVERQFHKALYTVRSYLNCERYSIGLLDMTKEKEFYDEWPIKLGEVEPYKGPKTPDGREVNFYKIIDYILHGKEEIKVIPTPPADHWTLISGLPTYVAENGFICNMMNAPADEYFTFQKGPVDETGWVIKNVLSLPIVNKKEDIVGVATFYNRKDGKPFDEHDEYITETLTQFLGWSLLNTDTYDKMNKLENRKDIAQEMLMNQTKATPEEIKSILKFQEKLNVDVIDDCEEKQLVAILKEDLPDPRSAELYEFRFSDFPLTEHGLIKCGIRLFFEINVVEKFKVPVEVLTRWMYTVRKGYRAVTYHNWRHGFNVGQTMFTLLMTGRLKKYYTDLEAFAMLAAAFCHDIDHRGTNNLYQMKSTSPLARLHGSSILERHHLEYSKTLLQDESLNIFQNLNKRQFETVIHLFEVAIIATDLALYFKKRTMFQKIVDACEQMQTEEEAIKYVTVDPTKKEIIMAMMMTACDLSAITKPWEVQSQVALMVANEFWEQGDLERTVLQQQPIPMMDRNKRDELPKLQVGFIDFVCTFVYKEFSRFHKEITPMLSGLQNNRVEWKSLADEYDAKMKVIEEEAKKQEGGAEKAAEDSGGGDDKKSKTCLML

[10] = target: High affinity 3',5'-cyclic-AMP phosphodiesterase 7A (Homo sapiens, UniProt Q13946); test: Inhibition of PDE7A (unknown origin) by immobilized metal ion affinity-based fluorescence polarization
[11] = target: High affinity cGMP-specific 3',5'-cyclic phosphodiesterase 9A (Homo sapiens, UniProt O76083); test: Inhibition of PDE9A2 (unknown origin) by immobilized metal ion affinity-based fluorescence polarization
[12] = Inhibition of PDE4D3 (unknown origin) by immobilized metal ion affinity-based fluorescence polarization; set-up: species or system Homo sapiens
[13] = target: T2, Acetylcholinesterase (Homo sapiens, UniProt P22303); test: Inhibition of recombinant human AChE using acetylthiocholine as substrate by UV-visible absorption method
T2 sequence (P22303 whole entry): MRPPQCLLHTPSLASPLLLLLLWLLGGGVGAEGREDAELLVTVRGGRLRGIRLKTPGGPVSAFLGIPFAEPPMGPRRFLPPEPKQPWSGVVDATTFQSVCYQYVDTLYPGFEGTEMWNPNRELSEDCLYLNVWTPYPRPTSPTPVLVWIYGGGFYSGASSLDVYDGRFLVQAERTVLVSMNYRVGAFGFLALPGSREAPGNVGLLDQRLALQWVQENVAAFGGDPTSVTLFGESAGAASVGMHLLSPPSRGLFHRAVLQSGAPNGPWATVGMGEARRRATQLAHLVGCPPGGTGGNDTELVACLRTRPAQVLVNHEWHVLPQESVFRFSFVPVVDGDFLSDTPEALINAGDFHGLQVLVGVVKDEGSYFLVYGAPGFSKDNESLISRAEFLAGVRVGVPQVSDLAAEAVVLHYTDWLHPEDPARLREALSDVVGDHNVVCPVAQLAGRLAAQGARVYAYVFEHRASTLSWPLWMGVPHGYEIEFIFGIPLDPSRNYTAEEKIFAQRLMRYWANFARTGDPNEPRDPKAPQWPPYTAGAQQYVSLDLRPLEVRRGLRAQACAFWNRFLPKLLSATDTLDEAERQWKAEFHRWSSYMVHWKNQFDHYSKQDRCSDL

[14] = target: T3, Beta-secretase 1 (Homo sapiens, UniProt P56817); test: Inhibition of BACE-1 (unknown origin) after 60 mins by FRET assay
T3 sequence (P56817 whole entry): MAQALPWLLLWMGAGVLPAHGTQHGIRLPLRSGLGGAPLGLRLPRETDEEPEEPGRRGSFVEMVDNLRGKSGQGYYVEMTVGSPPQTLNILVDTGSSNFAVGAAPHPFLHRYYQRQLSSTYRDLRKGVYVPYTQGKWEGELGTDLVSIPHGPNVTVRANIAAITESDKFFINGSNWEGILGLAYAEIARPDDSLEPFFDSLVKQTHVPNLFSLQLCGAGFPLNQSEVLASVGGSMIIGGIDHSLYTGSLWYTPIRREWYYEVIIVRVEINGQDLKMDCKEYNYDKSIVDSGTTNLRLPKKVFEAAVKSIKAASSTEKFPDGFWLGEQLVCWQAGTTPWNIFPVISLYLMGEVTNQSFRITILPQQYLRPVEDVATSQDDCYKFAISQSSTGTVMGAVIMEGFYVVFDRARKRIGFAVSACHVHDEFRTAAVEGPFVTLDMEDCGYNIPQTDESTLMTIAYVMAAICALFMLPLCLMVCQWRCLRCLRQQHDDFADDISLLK

[15] = target: T4, Acetylcholinesterase (Electrophorus electricus, UniProt O42275); test: Inhibition of electric eel AChE using acetylthiocholine as substrate measured for 3.2 mins by Ellman's method
T4 sequence (O42275 whole entry): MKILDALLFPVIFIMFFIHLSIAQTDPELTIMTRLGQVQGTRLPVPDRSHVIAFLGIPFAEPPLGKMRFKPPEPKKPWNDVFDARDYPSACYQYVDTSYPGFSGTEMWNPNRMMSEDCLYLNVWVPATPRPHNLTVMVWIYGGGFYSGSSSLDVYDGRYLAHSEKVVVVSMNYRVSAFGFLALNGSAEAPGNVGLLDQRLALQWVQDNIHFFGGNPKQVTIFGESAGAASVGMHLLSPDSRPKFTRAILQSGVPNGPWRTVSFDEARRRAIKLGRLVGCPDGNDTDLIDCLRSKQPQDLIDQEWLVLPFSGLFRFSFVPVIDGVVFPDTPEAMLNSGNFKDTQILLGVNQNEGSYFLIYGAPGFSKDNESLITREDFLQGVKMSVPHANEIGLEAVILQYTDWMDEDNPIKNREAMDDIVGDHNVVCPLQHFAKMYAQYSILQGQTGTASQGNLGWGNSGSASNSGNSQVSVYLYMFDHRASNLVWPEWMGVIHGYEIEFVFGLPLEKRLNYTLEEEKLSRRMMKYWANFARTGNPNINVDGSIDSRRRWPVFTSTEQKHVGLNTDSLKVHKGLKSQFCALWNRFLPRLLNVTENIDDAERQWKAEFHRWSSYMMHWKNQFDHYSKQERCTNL

[16] = target: T4, Acetylcholinesterase; test: Inhibition of electric eel AChE using acetylthiocholine chloride as substrate preincubated for 15 mins followed by substrate addition
[17] = target: T2, Acetylcholinesterase; test: Inhibition of AChE (unknown origin)
[18] = target: T3, Beta-secretase 1; test: Inhibition of BACE-1 (unknown origin)
[19] = target: T5, Amine oxidase [flavin-containing] A (Homo sapiens, UniProt P21397); test: Irreversible inhibition of MAOA (unknown origin)
T5 sequence (P21397 whole entry): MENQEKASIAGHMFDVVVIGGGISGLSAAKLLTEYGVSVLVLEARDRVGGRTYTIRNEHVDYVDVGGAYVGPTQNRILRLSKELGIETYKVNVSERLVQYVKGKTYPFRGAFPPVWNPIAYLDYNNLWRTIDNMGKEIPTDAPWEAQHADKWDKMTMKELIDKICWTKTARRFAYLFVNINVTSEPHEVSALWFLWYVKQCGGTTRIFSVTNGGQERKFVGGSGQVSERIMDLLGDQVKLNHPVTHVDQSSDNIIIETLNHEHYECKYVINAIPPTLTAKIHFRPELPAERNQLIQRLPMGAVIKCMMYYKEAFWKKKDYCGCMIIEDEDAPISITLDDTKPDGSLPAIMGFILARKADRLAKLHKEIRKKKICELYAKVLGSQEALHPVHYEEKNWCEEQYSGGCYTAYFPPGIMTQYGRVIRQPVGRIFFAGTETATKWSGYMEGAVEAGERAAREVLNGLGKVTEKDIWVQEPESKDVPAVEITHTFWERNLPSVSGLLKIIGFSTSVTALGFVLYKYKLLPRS

[20] = target: T6, Amine oxidase [flavin-containing] B (Homo sapiens, UniProt P27338); test: Irreversible inhibition of MAOB (unknown origin)
T6 sequence (P27338 whole entry): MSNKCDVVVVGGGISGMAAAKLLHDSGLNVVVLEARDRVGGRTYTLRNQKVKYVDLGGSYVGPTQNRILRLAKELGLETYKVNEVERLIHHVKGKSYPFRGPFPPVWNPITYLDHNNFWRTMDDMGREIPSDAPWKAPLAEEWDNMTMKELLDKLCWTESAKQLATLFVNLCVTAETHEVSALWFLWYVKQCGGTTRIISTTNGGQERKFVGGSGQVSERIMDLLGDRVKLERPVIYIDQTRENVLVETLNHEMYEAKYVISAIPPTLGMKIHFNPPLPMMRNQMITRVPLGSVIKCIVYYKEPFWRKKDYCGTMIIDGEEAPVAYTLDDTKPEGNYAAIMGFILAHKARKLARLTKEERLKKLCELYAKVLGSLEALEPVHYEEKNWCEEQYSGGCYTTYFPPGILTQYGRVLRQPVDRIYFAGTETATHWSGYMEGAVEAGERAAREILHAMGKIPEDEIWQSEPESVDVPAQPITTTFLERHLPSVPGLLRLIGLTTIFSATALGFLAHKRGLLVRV

[21] = target: T2, Acetylcholinesterase; test: Inhibition of recombinant human AChE
[22] = target: T3, Beta-secretase 1; test: Inhibition of recombinant human BACE-1
[23] = tested on: CHO-K1; test: Cytotoxicity against CHOK1 cells assessed as reduction in cell viability by MTT assay; type: cell-based; settings: Cricetulus griseus
[24] = tested on: HepG2; test: Cytotoxicity against human HepG2 cells assessed as reduction in cell viability by MTT assay; type: cell-based
[25] = target: Amyloid-beta precursor protein (Homo sapiens) (UniProt P05067); test: Inhibition of beta amyloid (unknown origin) self-induced aggregation at 10 uM relative to control
Sequence of Amyloid-beta precursor protein (Homo sapiens) (P05067 whole entry): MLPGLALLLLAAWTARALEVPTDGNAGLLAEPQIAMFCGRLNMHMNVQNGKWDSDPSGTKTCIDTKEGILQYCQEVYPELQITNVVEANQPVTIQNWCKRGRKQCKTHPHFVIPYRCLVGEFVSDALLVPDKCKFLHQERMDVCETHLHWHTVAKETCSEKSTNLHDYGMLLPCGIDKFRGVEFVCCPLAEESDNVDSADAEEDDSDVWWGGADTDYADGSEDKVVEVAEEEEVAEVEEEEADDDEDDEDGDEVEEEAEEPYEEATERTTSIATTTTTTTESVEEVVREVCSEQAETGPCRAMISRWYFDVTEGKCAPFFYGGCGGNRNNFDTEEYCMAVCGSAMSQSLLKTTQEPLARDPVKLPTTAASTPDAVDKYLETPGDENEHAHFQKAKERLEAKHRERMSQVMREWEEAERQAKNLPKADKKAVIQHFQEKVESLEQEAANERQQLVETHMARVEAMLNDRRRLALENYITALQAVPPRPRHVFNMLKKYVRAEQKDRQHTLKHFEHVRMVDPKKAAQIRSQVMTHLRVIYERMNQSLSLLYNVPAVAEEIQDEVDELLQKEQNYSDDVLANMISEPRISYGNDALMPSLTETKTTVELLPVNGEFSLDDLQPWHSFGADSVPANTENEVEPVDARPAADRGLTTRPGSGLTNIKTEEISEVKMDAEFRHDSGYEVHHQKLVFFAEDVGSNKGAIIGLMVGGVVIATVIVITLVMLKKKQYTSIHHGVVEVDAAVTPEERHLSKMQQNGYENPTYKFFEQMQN

[26] = Oral bioavailability in Alzheimer's disease patient at 2 mg/ml; type: ADME, organism-based; settings: human, in vivo
[27] = Half life in Alzheimer's disease patient at 2 mg/ml, po; type: ADME; settings: human, in vivo
[28] = Drug excretion in Alzheimer's disease patient urine at 2 mg/ml, po; type: ADME, tissue-based; settings: human, read-out: Drug excretion
[29] = target: Glutamate [NMDA] receptor; test: Inhibition of NMDA receptor (unknown origin); type: protein-complex assay, Homo sapiens
[30] = target: Amyloid-beta precursor protein (Homo sapiens) (UniProt P05067); test: Inhibition of beta amyloid (unknown origin) self-induced aggregation relative to control; settings: concentration not given here
[31] = target: T5, Amine oxidase [flavin-containing] A; test: Mixed type inhibition of MAOA (unknown origin)
[32] = target: T6, Amine oxidase [flavin-containing] B; test: Mixed type inhibition of MAOB (unknown origin)
[33] = target: T2, Acetylcholinesterase; test: Irreversible inhibition of AChE (unknown origin)
[34] = target: T3, Beta-secretase 1; test: Irreversible inhibition of BACE-1 (unknown origin)

## CCN1CCc2c(c3ccccc3n2CCC(=O)N2c3ccccc3Sc3ccccc32)C1
[1]
  IC50: 0.52 µM
[2]
  IC50: 14.6 µM
[3]
  IC50: 13.4 µM

## O=C1[C@H]2Cc3c([nH]c4ccccc34)[C@@H](c3ccc4c(c3)OCO4)N2C(=O)CN1CCC1CCN(Cc2ccccc2)CC1
[4]
  IC50: 0.032 µM
[5]
  IC50: 3.88 µM
[6]
  IC50: 1.53 µM
[7]
  IC50: > 100 µM
[8]
  IC50: > 100 µM
[9]
  IC50: > 100 µM
[10]
  IC50: > 100 µM
[11]
  IC50: > 100 µM
[12]
  IC50: > 100 µM

## COc1ccc(CNC(=O)C2CCN(C(=O)c3ccccc3)CC2)cc1OC
[13]
  IC50: 0.00411 µM
[14]
  IC50: 0.0183 µM

## Cc1cc(=O)oc2cc(OCCN3CCN(CC(=O)Nc4c5c(nc6ccccc46)CCCC5)CC3)ccc12
[15]
  IC50: 92 µM

## COc1ccc(/C=C2\COc3cc(OCCCN4CCCCC4)ccc3C2=O)cc1
[16]
  IC50: 3.94 µM

## OC(CNCc1cccc(OCc2ccccc2)c1)Cn1cc(Br)c2cc(Br)ccc21 (stereo not given)
[17]
  IC50: 9.1 µM
[18]
  IC50: 0.97 µM

## COc1cc(/C=C/C(O)=C/C(=O)/C=C/c2ccc(OCc3ccccc3)cc2)ccc1O
[18]
  IC50: 2.5 µM

## COc1ccc2[nH]c3nc4c(c(N)c3c2c1)CCCC4
[19]
  IC50: 0.49 µM
[20]
  IC50: 53.9 µM
[21]
  IC50: 1.5 µM
[22]
  IC50: 2.4 µM
[23]
  IC50: 5.5 µM
[24]
  IC50: 1.22 µM

## C#CCN(C)Cc1cc2cc(OCCCC3CCN(Cc4ccccc4)CC3)ccc2n1C
[17]
  IC50: 0.35 µM
[25]
  inhibition: 47.8%

## CC12CC3CC(C)(C1)CC(N)(C3)C2 [MEMANTINE]
[26]
  bioavailability: 100%
[27]
  half-life: 60 to 100 h
[28]
  dose excreted: 48%

## Cc1ccc2[nH]c3c(c2c1)CN(CCCCCN1CCc2[nH]c4ccc(C)cc4c2C1)CC3
[29]
  IC50: 11 µM
[17]
  IC50: 0.195 µM
[30]
  inhibition: 67%

## C#CCN(C)Cc1ccc(O)c2ncccc12
[31]
  IC50: 57 µM
[32]
  IC50: 1.5 µM
[33]
  IC50: 1.8 µM
[34]
  IC50: 1.6 µM
[19]
  IC50: 6.2 µM
[20]
  IC50: 10.2 µM

## CN1CC(=O)N2[C@H](c3ccc4c(c3)OCO4)c3[nH]c4ccccc4c3C[C@@H]2C1=O
[4]
  IC50: 26.2 µM
